Experimental data: ChEMBL document CHEMBL3832761, “MMV Pathogen Box Bioactivity Data” (2017)
In brackets after ≈: the same amount, converted by molar mass.

What was measured:
Assay type in all cases: functional
[1] = test system: Mycobacterium tuberculosis; assay: AntiMycobacterium tuberculosis activity Non-Replicating form: Average MIC90 (uM)
[2] = test system: Mycobacterium tuberculosis; assay: AntiMycobacterium tuberculosis activity 1-week GAST/Fe MIC (uM); details: 168 h
[3] = test system: Mycobacterium tuberculosis; assay: AntiMycobacterium tuberculosis activity 2-week GAST/Fe MIC (uM); details: 336 h
[4] = test system: Mycobacterium tuberculosis; assay: AntiMycobacterium tuberculosis activity 1-week 7H9/ADC/Tw MIC (uM); details: 168 h
[5] = test system: Mycobacterium tuberculosis; assay: AntiMycobacterium tuberculosis activity 2-week 7H9/ADC/Tw MIC (uM); details: 336 h
[6] = test system: Mycobacterium tuberculosis; assay: AntiMycobacterium tuberculosis activity 2-week Alamar Blue 7H9/ADC/Tw MIC (uM); details: 336 h
[7] = test system: Mycobacterium tuberculosis; assay: AntiMycobacterium tuberculosis activity 1-week 7H9/glucose/BSA/Tx MIC (uM); details: 168 h
[8] = test system: Mycobacterium tuberculosis; assay: AntiMycobacterium tuberculosis activity 2-week 7H9/glucose/BSA/Tx MIC (uM); details: 336 h
[9] = test system: Mycobacterium tuberculosis; assay: AntiMycobacterium tuberculosis activity 1-week 7H9/DPPC/cholesterol/BSA/Tx MIC (uM); details: 168 h
[10] = test system: Mycobacterium tuberculosis; assay: AntiMycobacterium tuberculosis activity 2-week 7H9/DPPC/cholesterol/BSA/Tx MIC (uM); details: 336 h
[11] = test system: Mycobacterium tuberculosis; assay: AntiMycobacterium tuberculosis activity 1-week 7H9/cholesterol/BSA/Tx MIC (uM); details: 168 h
[12] = test system: Mycobacterium tuberculosis; assay: AntiMycobacterium tuberculosis activity 2-week Alamar Blue 7H9/cholesterol/BSA/Tx MIC (uM); details: 336 h
[13] = test system: Mycobacterium tuberculosis; assay: (§1) AntiMycobacterium tuberculosis activity day 10 in 7H9/2.5mM butyrate/pH6/0.1mM nitrite MIC90 (uM); details: 240 h
[14] = test system: Mycobacterium tuberculosis; assay: AntiMycobacterium tuberculosis activity day 21 in 7H9/2.5mM butyrate/pH6/0.1mM nitrite MIC90 (uM); details: 504 h
[15] = test system: Mycobacterium tuberculosis; assay: as §1; details: 240 h; remark: listed apart in the source
[16] = test system: Mycobacterium tuberculosis; assay: AntiMycobacterium tuberculosis activity day 21 MIC99 in 7H9/2.5mM butyrate/pH6/0.1mM nitrite MIC99 (uM); details: 504 h
[17] = test system: Mycobacterium tuberculosis; assay: AntiMycobacterium tuberculosis activity Replicating form: Average MIC90 (uM)
HepG2 = assay: HepG2 CC50 (uM) Cytotoxicity; details: Homo sapiens

| Structure (SMILES) | MIC90 [1] | MIC [2] | MIC [3] | MIC [4] | MIC [5] | MIC [6] | MIC [7] | MIC [8] | MIC [9] | MIC [10] | MIC [11] | MIC [12] | MIC90 [13] | MIC90 [14] | MIC90 [15] | MIC [16] | MIC90 [17] | CC50 (HepG2) |
| --- | --- | --- | --- | --- | --- | --- | --- | --- | --- | --- | --- | --- | --- | --- | --- | --- | --- | --- |
| CC1COC2(CCN(c3nc(=O)c4cc(C(F)(F)F)cc([N+](=O)[O-])c4s3)CC2)O1 (stereo unspecified) | < 0.01 µM | < 0.02 µM | < 0.02 µM | < 0.02 µM | < 0.02 µM | < 0.02 µM | < 0.02 µM | < 0.02 µM | < 0.02 µM | < 0.02 µM | < 0.02 µM | < 0.02 µM | ≤ 0.04 µM | ≤ 0.04 µM | ≤ 0.04 µM | ≤ 0.04 µM | < 0.01 µM | > 100 µM |
| O=C(NCc1ccco1)N1CCN(Cc2ccc(Cl)s2)CC1 | 90.2 µM (≈ 30.6 µg/mL) | 0.6 µM (≈ 0.204 µg/mL) | 1.2 µM (≈ 0.408 µg/mL) | > 50 µM | > 50 µM | 12.5 µM (≈ 4.25 µg/mL) | > 50 µM | > 50 µM | 37 µM (≈ 12.6 µg/mL) | 50 µM (≈ 17 µg/mL) | 37 µM (≈ 12.6 µg/mL) | 12.5 µM (≈ 4.25 µg/mL) | 50 µM (≈ 17 µg/mL) | > 50 µM | > 50 µM | > 50 µM | > 100 µM | > 100 µM |
| CC(Oc1ccccc1)C(=O)Nc1nc(-c2ccccn2)cs1 (stereo unspecified) | 41.7 µM (≈ 13.6 µg/mL) | 1.56 µM (≈ 0.508 µg/mL) | 2.3 µM (≈ 0.748 µg/mL) | 12.5 µM (≈ 4.07 µg/mL) | 12.5 µM (≈ 4.07 µg/mL) | 12.5 µM (≈ 4.07 µg/mL) | 12.5 µM (≈ 4.07 µg/mL) | 50 µM (≈ 16.3 µg/mL) | 25 µM (≈ 8.13 µg/mL) | > 50 µM | 9.4 µM (≈ 3.06 µg/mL) | 19 µM (≈ 6.18 µg/mL) | 12.5 µM (≈ 4.07 µg/mL) | 12.5 µM (≈ 4.07 µg/mL) | 6.25 µM (≈ 2.03 µg/mL) | 6.25 µM (≈ 2.03 µg/mL) | 91.3 µM (≈ 29.7 µg/mL) | 29.3 µM |
| COc1cccc(OC)c1C(=O)Nc1ccc(Cl)c(-c2nc3ccccc3s2)c1 | 55.1 µM (≈ 23.4 µg/mL) | 6.25 µM (≈ 2.66 µg/mL) | 9.4 µM (≈ 3.99 µg/mL) | 37 µM (≈ 15.7 µg/mL) | 37 µM (≈ 15.7 µg/mL) | 37 µM (≈ 15.7 µg/mL) | 25 µM (≈ 10.6 µg/mL) | 25 µM (≈ 10.6 µg/mL) | 12.5 µM (≈ 5.31 µg/mL) | 12.5 µM (≈ 5.31 µg/mL) | 12.5 µM (≈ 5.31 µg/mL) | 19 µM (≈ 8.07 µg/mL) | > 50 µM | > 50 µM | > 50 µM | > 50 µM | 26.1 µM (≈ 11.1 µg/mL) | > 100 µM |
| NCC(c1cccs1)S(=O)(=O)c1ccccc1 (stereo unspecified) | 19.6 µM (≈ 5.24 µg/mL) | 1.56 µM (≈ 0.417 µg/mL) | 2.3 µM (≈ 0.615 µg/mL) | 19 µM (≈ 5.08 µg/mL) | 25 µM (≈ 6.68 µg/mL) | 25 µM (≈ 6.68 µg/mL) | 25 µM (≈ 6.68 µg/mL) | 25 µM (≈ 6.68 µg/mL) | 50 µM (≈ 13.4 µg/mL) | 50 µM (≈ 13.4 µg/mL) | 50 µM (≈ 13.4 µg/mL) | 50 µM (≈ 13.4 µg/mL) | 25 µM (≈ 6.68 µg/mL) | 25 µM (≈ 6.68 µg/mL) | > 50 µM | > 50 µM | 20.7 µM (≈ 5.52 µg/mL) | 35.4 µM |
| Cc1nnc(NCc2cccc(Cl)c2)c2ccccc12 | 4.61 µM (≈ 1.31 µg/mL) | 0.2 µM (≈ 0.0568 µg/mL) | 0.6 µM (≈ 0.17 µg/mL) | 50 µM (≈ 14.2 µg/mL) | > 50 µM | 1.56 µM (≈ 0.443 µg/mL) | > 50 µM | > 50 µM | ≥ 50 µM | > 50 µM | 19 µM (≈ 5.39 µg/mL) | > 50 µM | 25 µM (≈ 7.09 µg/mL) | > 50 µM | > 50 µM | > 50 µM | > 100 µM | 76 µM |
| Cc1ccc2oc(-c3cc(NC(=O)Cc4ccccc4)ccc3Cl)nc2c1 | > 100 µM | 6.25 µM (≈ 2.36 µg/mL) | 9.4 µM (≈ 3.54 µg/mL) | 25 µM (≈ 9.42 µg/mL) | 25 µM (≈ 9.42 µg/mL) | 25 µM (≈ 9.42 µg/mL) | 25 µM (≈ 9.42 µg/mL) | 25 µM (≈ 9.42 µg/mL) | 12.5 µM (≈ 4.71 µg/mL) | 12.5 µM (≈ 4.71 µg/mL) | 25 µM (≈ 9.42 µg/mL) | 25 µM (≈ 9.42 µg/mL) | > 50 µM | > 50 µM | > 50 µM | > 50 µM | 3.58 µM (≈ 1.35 µg/mL) | 83.6 µM |
| Nc1cccnc1Nc1ccc(Cl)cc1 | 3.65 µM (≈ 0.802 µg/mL) | 50 µM (≈ 11 µg/mL) | 50 µM (≈ 11 µg/mL) | > 50 µM | > 50 µM | 37 µM (≈ 8.13 µg/mL) | 50 µM (≈ 11 µg/mL) | 50 µM (≈ 11 µg/mL) | 12.5 µM (≈ 2.75 µg/mL) | 19 µM (≈ 4.17 µg/mL) | 9.4 µM (≈ 2.06 µg/mL) | 4.7 µM (≈ 1.03 µg/mL) | 12.5 µM (≈ 2.75 µg/mL) | 50 µM (≈ 11 µg/mL) | > 50 µM | > 50 µM | 4.3 µM (≈ 0.945 µg/mL) | 9 µM |
| NC(CC(=O)c1ccc(Cl)cc1Cl)C(Cl)(Cl)Cl (stereo unspecified) | 6.04 µM (≈ 2.03 µg/mL) | 0.39 µM (≈ 0.131 µg/mL) | 0.6 µM (≈ 0.201 µg/mL) | 12.5 µM (≈ 4.19 µg/mL) | 12.5 µM (≈ 4.19 µg/mL) | 12.5 µM (≈ 4.19 µg/mL) | 19 µM (≈ 6.37 µg/mL) | 25 µM (≈ 8.39 µg/mL) | 37 µM (≈ 12.4 µg/mL) | 50 µM (≈ 16.8 µg/mL) | 19 µM (≈ 6.37 µg/mL) | 25 µM (≈ 8.39 µg/mL) | 12.5 µM (≈ 4.19 µg/mL) | 12.5 µM (≈ 4.19 µg/mL) | > 50 µM | > 50 µM | 17.4 µM (≈ 5.83 µg/mL) | 37.9 µM |
| CCCCS(=O)(=O)Nc1ccc2cnn(C)c2c1 | 1.39 µM (≈ 0.372 µg/mL) | 0.3 µM (≈ 0.0802 µg/mL) | 0.6 µM (≈ 0.16 µg/mL) | 0.6 µM (≈ 0.16 µg/mL) | 0.6 µM (≈ 0.16 µg/mL) | 0.6 µM (≈ 0.16 µg/mL) | 0.39 µM (≈ 0.104 µg/mL) | 0.78 µM (≈ 0.209 µg/mL) | 0.39 µM (≈ 0.104 µg/mL) | 0.6 µM (≈ 0.16 µg/mL) | 0.6 µM (≈ 0.16 µg/mL) | 2.3 µM (≈ 0.615 µg/mL) | 12.5 µM (≈ 3.34 µg/mL) | 50 µM (≈ 13.4 µg/mL) | > 50 µM | 50 µM (≈ 13.4 µg/mL) | 0.69 µM (≈ 0.184 µg/mL) | > 100 µM |
| CCc1c(C)nc(-n2nc(C)cc2NC(=O)c2ccccc2SC)[nH]c1=O | 1.25 µM (≈ 0.479 µg/mL) | 0.1 µM (≈ 0.0383 µg/mL) | 0.2 µM (≈ 0.0767 µg/mL) | > 50 µM | > 50 µM | 37 µM (≈ 14.2 µg/mL) | 9.4 µM (≈ 3.6 µg/mL) | > 50 µM | 3.13 µM (≈ 1.2 µg/mL) | > 50 µM | 6.25 µM (≈ 2.4 µg/mL) | > 50 µM | 3.12 µM (≈ 1.2 µg/mL) | > 50 µM | > 50 µM | > 50 µM | > 100 µM | 1.3 µM |
| CC(C)(C(=O)Nc1ccc(F)cc1)n1cc(-c2ccccc2F)cn1 | 3.6 µM (≈ 1.23 µg/mL) | 2.3 µM (≈ 0.785 µg/mL) | 2.3 µM (≈ 0.785 µg/mL) | 1.56 µM (≈ 0.533 µg/mL) | 1.56 µM (≈ 0.533 µg/mL) | 2.3 µM (≈ 0.785 µg/mL) | 3.13 µM (≈ 1.07 µg/mL) | 3.13 µM (≈ 1.07 µg/mL) | 2.3 µM (≈ 0.785 µg/mL) | 1.56 µM (≈ 0.533 µg/mL) | 0.6 µM (≈ 0.205 µg/mL) | 1.56 µM (≈ 0.533 µg/mL) | 6.25 µM (≈ 2.13 µg/mL) | 6.25 µM (≈ 2.13 µg/mL) | 12.5 µM (≈ 4.27 µg/mL) | 12.5 µM (≈ 4.27 µg/mL) | 4.51 µM (≈ 1.54 µg/mL) | > 100 µM |
